The NIST ThermoML archive (doi:10.1016/j.jct.2009.07.002)
± gives the expanded uncertainty stated by the source.

Assay: isobaric coefficient of expansion
Settings: Liquid, DSC with Pressure Shift

CCCCCO [pentan-1-ol]
isobaric coefficient of expansion
Settings | 278.15 K | 288.15 K | 298.15 K | 308.15 K | 318.15 K | 328.15 K | 338.15 K | 348.15 K
5000 kPa | 0.000863 ± 3.7e-05 1/K | 0.000873 ± 3.7e-05 1/K | 0.000889 ± 3.8e-05 1/K | 0.000908 ± 3.9e-05 1/K | 0.000934 ± 4e-05 1/K | 0.00096 ± 4.1e-05 1/K | 0.001 ± 4.3e-05 1/K | 0.00105 ± 4.4e-05 1/K
10000 kPa | 0.000833 ± 3.5e-05 1/K | 0.00085 ± 3.6e-05 1/K | 0.000864 ± 3.7e-05 1/K | 0.000883 ± 3.7e-05 1/K | 0.000904 ± 3.8e-05 1/K | 0.00093 ± 3.9e-05 1/K | 0.000961 ± 4.1e-05 1/K | 0.001 ± 4.2e-05 1/K
15000 kPa | 0.000826 ± 3.5e-05 1/K | 0.000831 ± 3.5e-05 1/K | 0.000847 ± 3.6e-05 1/K | 0.00086 ± 3.7e-05 1/K | 0.000879 ± 3.7e-05 1/K | 0.000899 ± 3.8e-05 1/K | 0.000927 ± 3.9e-05 1/K | 0.00096 ± 4.1e-05 1/K
20000 kPa | 0.000805 ± 3.4e-05 1/K | 0.000813 ± 3.4e-05 1/K | 0.000825 ± 3.5e-05 1/K | 0.000838 ± 3.6e-05 1/K | 0.000853 ± 3.6e-05 1/K | 0.000873 ± 3.7e-05 1/K | 0.000899 ± 3.8e-05 1/K | 0.000927 ± 3.9e-05 1/K
25000 kPa | 0.000788 ± 3.3e-05 1/K | 0.000795 ± 3.4e-05 1/K | 0.000805 ± 3.4e-05 1/K | 0.000816 ± 3.5e-05 1/K | 0.00083 ± 3.5e-05 1/K | 0.000849 ± 3.6e-05 1/K | 0.000874 ± 3.7e-05 1/K | 0.000899 ± 3.8e-05 1/K
30000 kPa | 0.000778 ± 3.3e-05 1/K | 0.000779 ± 3.3e-05 1/K | 0.000788 ± 3.3e-05 1/K | 0.000796 ± 3.4e-05 1/K | 0.000814 ± 3.5e-05 1/K | 0.000827 ± 3.5e-05 1/K | 0.000847 ± 3.6e-05 1/K | 0.000871 ± 3.7e-05 1/K
35000 kPa | 0.000752 ± 3.2e-05 1/K | 0.000761 ± 3.2e-05 1/K | 0.000772 ± 3.3e-05 1/K | 0.00078 ± 3.3e-05 1/K | 0.000794 ± 3.4e-05 1/K | 0.000809 ± 3.4e-05 1/K | 0.000828 ± 3.5e-05 1/K | 0.000849 ± 3.6e-05 1/K
40000 kPa | 0.000742 ± 3.1e-05 1/K | 0.000747 ± 3.2e-05 1/K | 0.000757 ± 3.2e-05 1/K | 0.000763 ± 3.2e-05 1/K | 0.000776 ± 3.3e-05 1/K | 0.00079 ± 3.4e-05 1/K | 0.000806 ± 3.4e-05 1/K | 0.000826 ± 3.5e-05 1/K
45000 kPa | 0.000735 ± 3.1e-05 1/K | 0.000735 ± 3.1e-05 1/K | 0.000741 ± 3.1e-05 1/K | 0.000748 ± 3.2e-05 1/K | 0.000759 ± 3.2e-05 1/K | 0.000772 ± 3.3e-05 1/K | 0.000786 ± 3.3e-05 1/K | 0.000807 ± 3.4e-05 1/K
50000 kPa | 0.000719 ± 3e-05 1/K | 0.000724 ± 3.1e-05 1/K | 0.000729 ± 3.1e-05 1/K | 0.000734 ± 3.1e-05 1/K | 0.000745 ± 3.2e-05 1/K | 0.000755 ± 3.2e-05 1/K | 0.000773 ± 3.3e-05 1/K | 0.000787 ± 3.3e-05 1/K
55000 kPa | 0.000714 ± 3e-05 1/K | 0.000713 ± 3e-05 1/K | 0.000717 ± 3e-05 1/K | 0.000721 ± 3.1e-05 1/K | 0.000731 ± 3.1e-05 1/K | 0.00074 ± 3.1e-05 1/K | 0.000755 ± 3.2e-05 1/K | 0.000768 ± 3.3e-05 1/K
